Test results reported in paper PMC3699521, “ZrFsy1, a High-Affinity Fructose/H^+ Symporter from Fructophilic Yeast Zygosaccharomyces rouxii” (PLoS ONE, 2013).

Target: T1, ZrFsy1 (Zygosaccharomyces rouxii, UniProt C5DSI4)
T1 construct: gene ZYRO0C00374g; full length, 564 residues, C-terminal GFP tag, multicopy plasmid pZRS1-S (own promoter), expressed in S. cerevisiae hxt-null EBY.VW4000
T1 sequence (C5DSI4 1-564): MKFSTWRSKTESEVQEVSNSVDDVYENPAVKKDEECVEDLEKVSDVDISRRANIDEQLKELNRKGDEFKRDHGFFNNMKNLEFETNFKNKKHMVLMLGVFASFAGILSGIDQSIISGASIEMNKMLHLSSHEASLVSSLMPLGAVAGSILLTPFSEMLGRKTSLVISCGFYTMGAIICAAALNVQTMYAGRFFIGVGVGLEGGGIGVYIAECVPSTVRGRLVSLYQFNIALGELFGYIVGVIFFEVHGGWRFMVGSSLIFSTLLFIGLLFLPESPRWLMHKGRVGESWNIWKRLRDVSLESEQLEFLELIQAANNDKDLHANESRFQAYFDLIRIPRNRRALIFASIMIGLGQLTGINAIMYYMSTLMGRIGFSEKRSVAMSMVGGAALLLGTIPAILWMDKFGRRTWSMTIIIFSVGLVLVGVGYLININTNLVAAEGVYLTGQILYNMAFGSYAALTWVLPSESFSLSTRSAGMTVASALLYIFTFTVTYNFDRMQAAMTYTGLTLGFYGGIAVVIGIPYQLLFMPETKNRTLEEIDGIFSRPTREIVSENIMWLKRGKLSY
Assay: inhibition of [U-14C]fructose uptake; extracellular alkalinisation on sorbose pulse
Assay type: cell-based
Conditions: competitor of labelled fructose; 10 mM sorbose, 25 °C, pH 5 in the proton symport assay; D / L form not stated

## OCC1(O)OC[C@H](O)[C@@H](O)[C@@H]1O (stereo partly shown) [sorbose]
  inhibition of [U-14C]fructose uptake; extracellular alkalinisation on sorbose pu: transport of radioactive fructose by ZrFsy1 was inhibited by sorbose but not by glucose
